# Laboratory results published in ChEMBL document CHEMBL1201862, “PubChem BioAssay data set” (2004).
# The source made the active and inactive calls.
# Legend:
# [1] = target: Cytochrome P450 2C19 (Homo sapiens, UniProt P33261); experiment: Cytochrome panel assay with activity outcomes. Panel member name: p450-cyp2c19 Compounds with AC50 equal or less than 10 uM are considered active; format: functional; conditions: read-out: AC50
# [2] = target: Cytochrome P450 2D6 (Homo sapiens, UniProt P10635);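 also: CYP2D6 member of a cytochrome P450 panel assay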
# Sequence of Cytochrome P450 2D6 (P10635 whole entry): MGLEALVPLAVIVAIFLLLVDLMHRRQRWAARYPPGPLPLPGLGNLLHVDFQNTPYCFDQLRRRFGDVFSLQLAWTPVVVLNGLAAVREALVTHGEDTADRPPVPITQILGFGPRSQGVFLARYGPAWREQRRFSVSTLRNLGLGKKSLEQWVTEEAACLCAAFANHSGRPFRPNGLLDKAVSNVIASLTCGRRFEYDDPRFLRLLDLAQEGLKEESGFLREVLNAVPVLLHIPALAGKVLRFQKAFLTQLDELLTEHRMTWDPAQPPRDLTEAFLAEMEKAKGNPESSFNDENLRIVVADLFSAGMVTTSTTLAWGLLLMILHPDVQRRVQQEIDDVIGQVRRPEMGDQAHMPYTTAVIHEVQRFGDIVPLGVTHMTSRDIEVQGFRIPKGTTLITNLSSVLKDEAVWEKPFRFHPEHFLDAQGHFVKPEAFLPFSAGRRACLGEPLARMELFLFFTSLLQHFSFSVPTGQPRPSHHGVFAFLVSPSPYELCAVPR
# [3] = target: Cytochrome P450 2C9 (Homo sapiens, UniProt P11712)
# Sequence of Cytochrome P450 2C9 (P11712 whole entry): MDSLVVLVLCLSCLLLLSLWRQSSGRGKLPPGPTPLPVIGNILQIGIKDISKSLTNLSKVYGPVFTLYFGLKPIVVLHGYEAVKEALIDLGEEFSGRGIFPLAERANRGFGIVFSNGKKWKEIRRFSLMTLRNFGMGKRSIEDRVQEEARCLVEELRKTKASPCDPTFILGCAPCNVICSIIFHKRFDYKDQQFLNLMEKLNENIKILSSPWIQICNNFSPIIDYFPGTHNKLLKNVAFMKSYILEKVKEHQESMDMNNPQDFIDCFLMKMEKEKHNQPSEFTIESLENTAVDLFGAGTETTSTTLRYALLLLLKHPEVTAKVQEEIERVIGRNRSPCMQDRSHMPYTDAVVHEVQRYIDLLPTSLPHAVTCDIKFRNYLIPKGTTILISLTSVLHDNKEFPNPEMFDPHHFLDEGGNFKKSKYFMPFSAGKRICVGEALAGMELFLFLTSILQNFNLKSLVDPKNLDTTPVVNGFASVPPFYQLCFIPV
# [4] = target: FAD-linked sulfhydryl oxidase ALR (Homo sapiens, UniProt P55789); experiment: inhibitors of human ALR sulfhydryl oxidase, dose response, biochemical, H2O2 detection, luminescence, cherry-pick (AID 493248)
# Sequence of FAD-linked sulfhydryl oxidase ALR (P55789 whole entry): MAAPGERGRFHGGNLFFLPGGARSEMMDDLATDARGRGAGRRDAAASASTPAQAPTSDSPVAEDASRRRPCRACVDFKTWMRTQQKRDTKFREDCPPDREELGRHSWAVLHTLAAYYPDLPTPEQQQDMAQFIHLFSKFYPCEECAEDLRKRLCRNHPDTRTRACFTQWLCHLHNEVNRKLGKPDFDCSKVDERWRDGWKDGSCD
# [5] = target: Genome polyprotein (dengue virus type 2, UniProt P29990); experiment: Dengue-2 NS5 methyltransferase inhibitors, primary screen, biochemical, confirmation dose response (AID 588689); format: functional
# Sequence of Genome polyprotein (P29990 2492-3391 limits assumed): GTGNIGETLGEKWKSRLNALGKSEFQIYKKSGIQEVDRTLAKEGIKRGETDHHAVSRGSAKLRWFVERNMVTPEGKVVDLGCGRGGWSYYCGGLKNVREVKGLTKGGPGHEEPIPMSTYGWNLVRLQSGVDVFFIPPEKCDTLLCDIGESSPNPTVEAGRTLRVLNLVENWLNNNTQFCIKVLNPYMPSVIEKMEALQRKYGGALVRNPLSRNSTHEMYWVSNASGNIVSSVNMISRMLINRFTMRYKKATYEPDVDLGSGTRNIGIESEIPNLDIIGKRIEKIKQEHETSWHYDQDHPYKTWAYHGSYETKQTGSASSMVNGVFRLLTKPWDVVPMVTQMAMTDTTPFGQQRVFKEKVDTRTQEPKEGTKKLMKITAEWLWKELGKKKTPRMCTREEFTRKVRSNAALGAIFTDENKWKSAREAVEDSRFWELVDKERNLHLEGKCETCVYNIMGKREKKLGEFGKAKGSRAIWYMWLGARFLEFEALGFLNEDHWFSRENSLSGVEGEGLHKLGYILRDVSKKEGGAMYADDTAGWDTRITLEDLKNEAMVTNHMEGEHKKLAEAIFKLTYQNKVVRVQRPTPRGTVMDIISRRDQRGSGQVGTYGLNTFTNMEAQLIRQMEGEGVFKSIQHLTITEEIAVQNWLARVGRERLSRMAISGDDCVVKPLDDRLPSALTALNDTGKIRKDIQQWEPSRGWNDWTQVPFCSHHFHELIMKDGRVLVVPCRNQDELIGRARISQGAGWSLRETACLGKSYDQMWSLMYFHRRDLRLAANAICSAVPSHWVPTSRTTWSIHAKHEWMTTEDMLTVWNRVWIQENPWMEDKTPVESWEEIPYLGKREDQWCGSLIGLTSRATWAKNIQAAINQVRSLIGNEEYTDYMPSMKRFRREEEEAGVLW
# [6] = target: Large T antigen (Simian virus 40, UniProt P03070); format: functional, Betapolyomavirus macacae;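 also: Confirmatory-stage PubChem screen for compounds that inhibit SV40 T antigen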
# Sequence of Large T antigen (P03070 whole entry): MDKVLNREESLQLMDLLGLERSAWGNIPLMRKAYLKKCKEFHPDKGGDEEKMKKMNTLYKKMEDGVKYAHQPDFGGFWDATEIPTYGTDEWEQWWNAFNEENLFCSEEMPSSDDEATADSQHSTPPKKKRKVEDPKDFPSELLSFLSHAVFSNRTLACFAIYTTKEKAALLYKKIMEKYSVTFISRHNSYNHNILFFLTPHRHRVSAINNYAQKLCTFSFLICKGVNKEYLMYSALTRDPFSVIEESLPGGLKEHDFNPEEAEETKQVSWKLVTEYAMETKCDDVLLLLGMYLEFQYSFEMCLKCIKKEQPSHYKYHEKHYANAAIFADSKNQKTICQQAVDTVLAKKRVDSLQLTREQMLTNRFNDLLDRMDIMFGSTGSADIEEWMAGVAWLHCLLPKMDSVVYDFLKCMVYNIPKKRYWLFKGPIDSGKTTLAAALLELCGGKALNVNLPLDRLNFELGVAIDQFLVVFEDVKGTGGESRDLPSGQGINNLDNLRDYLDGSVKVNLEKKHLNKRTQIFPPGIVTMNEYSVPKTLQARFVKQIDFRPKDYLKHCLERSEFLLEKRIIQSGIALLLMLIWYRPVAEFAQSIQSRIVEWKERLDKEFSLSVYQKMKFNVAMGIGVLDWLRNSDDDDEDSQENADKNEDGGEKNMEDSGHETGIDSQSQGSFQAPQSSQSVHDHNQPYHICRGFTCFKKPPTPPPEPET
# [7] = target: T1, Rac GTPase-activating protein 1 (Homo sapiens, UniProt Q9H0H5); experiment: MgcRacGAP GTPase-activating activity inhibitors, confirmation, biochemical, ADP Hunter fluorescence, primary and confirmatory (AID 624330); format: functional
# T1 sequence (Q9H0H5 whole entry): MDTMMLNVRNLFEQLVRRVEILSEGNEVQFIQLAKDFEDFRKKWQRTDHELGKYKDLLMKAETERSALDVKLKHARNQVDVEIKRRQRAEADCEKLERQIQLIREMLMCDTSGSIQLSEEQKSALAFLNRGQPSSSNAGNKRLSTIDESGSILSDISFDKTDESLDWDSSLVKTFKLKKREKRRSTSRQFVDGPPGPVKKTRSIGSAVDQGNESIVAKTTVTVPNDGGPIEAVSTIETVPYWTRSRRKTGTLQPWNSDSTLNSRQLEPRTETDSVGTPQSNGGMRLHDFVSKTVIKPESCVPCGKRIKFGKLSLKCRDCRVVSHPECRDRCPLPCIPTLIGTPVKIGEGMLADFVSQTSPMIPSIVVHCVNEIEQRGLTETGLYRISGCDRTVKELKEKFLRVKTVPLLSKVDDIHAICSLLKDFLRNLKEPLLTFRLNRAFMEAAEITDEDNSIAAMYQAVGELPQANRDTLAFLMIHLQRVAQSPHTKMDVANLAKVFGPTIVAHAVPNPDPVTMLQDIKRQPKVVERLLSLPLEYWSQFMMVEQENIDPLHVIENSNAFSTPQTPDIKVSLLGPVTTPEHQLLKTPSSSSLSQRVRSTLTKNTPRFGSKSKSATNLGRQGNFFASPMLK
# [8] = target: Eukaryotic translation initiation factor 4E (Mus musculus, UniProt P63073); experiment: eIF4E–eIF4G protein interaction inhibitors, dose response, biochemical, TR-FRET (AID 855); format: functional;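 also: potency for disrupting eIF4E binding to eIF4GI seen as loss of FRET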
# Sequence of Eukaryotic translation initiation factor 4E (P63073 whole entry, the tested form may be a part): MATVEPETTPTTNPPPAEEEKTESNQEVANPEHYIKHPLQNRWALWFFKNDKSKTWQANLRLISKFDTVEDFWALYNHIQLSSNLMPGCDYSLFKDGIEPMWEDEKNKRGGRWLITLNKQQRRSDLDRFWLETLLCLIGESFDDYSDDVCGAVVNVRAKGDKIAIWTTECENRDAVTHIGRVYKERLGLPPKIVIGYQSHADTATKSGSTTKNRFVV
# [9] = target: T2, RNA-binding protein pos-1 (Caenorhabditis elegans, UniProt G5EF15); experiment: inhibitors of POS-1/mex-3 RNA binding, dose response, biochemical, fluorescence polarization (AID 1964);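 also: purified POS-1 fused to maltose binding protein made in E. coli; potency of compounds blocking POS-1 binding to fluorescent RNA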
# T2 sequence (G5EF15 whole entry): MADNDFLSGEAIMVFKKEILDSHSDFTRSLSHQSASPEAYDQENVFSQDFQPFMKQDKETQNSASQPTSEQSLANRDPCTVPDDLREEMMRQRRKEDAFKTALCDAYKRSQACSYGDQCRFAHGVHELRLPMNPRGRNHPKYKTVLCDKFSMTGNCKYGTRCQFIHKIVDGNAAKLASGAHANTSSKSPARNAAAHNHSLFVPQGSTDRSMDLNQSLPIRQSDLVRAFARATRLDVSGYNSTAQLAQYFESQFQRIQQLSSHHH
# [10] = target: T3, Zinc finger protein mex-5 (Caenorhabditis elegans, UniProt Q9XUB2); experiment: MEX-5/TCR-2 RNA interaction inhibitors, dose response, biochemical, C. elegans, fluorescence polarization (AID 1960)
# T3 sequence (Q9XUB2 whole entry): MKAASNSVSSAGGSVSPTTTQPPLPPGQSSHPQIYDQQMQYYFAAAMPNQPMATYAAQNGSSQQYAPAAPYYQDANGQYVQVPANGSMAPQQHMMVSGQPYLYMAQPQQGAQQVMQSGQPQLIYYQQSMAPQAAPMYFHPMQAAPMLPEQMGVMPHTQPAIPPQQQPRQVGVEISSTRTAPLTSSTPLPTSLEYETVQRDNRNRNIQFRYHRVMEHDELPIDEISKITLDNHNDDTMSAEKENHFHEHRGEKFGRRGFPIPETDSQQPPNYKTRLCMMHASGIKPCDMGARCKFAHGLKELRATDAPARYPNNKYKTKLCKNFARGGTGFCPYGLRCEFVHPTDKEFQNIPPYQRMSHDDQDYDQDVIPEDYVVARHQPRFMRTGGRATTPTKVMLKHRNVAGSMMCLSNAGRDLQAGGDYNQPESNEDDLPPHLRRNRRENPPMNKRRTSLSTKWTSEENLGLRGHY
# [11] = system: INS1; experiment: beta cell apoptosis inhibitors, cytokine rescue, dose response, luminescence, retest (AID 449756); format: functional, cell-based; conditions: Rattus norvegicus;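 also: cell death triggered by IL-1 beta plus TNF-alpha plus IFN-gamma mixture; protective hits raise ATP signal compared with cytokine alone wells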
# [12] = target: T4, Calpain-2 catalytic subunit (Sus scrofa, UniProt P43367); experiment: pig calpain II inhibitor potency, dose response, biochemical, fluorogenic peptide substrate (AID 1420); format: functional
# T4 sequence (P43367 whole entry): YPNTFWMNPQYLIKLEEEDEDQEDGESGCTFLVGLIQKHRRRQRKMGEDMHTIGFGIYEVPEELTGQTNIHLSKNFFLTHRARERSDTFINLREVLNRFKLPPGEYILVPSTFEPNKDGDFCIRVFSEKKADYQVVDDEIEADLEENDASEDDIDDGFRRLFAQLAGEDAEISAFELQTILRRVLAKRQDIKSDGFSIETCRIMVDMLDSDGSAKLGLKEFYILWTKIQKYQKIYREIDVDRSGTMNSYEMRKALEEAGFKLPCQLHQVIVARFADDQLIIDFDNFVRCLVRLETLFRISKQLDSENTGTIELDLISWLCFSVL
# [13] = target: T5, Corticotropin-releasing factor receptor 2/Corticotropin-releasing factor-binding protein (Homo sapiens, UniProt P24387+Q13324); experiment: Dose Response confirmation of uHTS hits for small molecule antagonists of the CRF-binding protein and CRF-R2 receptor complex.; format: functional; conditions: read-out: IC50_Mean
# T5 sequence (Q13324 whole entry): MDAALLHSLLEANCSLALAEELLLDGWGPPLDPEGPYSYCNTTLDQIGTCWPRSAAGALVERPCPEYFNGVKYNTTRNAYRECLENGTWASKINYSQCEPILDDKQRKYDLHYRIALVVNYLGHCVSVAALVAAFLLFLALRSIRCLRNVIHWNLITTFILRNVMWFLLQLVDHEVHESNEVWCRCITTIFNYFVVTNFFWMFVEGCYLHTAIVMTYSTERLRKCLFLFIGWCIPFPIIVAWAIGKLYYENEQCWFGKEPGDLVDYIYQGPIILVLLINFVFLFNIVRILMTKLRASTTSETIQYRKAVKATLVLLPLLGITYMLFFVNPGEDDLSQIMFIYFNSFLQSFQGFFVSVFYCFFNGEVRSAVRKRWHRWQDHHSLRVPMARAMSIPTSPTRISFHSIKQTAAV
# T5 sequence (P24387 whole entry): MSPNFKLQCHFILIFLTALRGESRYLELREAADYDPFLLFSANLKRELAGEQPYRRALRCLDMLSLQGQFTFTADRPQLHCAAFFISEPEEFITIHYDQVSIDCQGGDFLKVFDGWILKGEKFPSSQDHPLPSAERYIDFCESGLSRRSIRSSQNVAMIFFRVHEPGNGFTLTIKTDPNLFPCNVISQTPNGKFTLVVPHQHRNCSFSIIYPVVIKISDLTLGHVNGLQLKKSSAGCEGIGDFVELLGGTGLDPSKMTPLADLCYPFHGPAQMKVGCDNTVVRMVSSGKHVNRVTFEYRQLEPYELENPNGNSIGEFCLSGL
# [14] = target: T5, Corticotropin-releasing factor receptor 2/Corticotropin-releasing factor-binding protein; experiment: activators of CRF receptor 2 with binding protein – uHTS hits, confirmation (AID 602473); format: functional; conditions: read-out: EC50_Mean
# [15] = system: BJ; experiment: cytotoxicity toward BJ-TERT fibroblasts, dose response, cell-based, RAS-independent, luminescence (AID 1933); format: functional; conditions: Homo sapiens
# [16] = system: BJ; experiment: cells; format: functional, cell-based; conditions: Homo sapiens
# [17] = target: Luciferin 4-monooxygenase (Photinus pyralis, UniProt P08659); experiment: firefly luciferase enzyme inhibitors, dose response, biochemical, luminescence (AID 1891)
# Sequence of Luciferin 4-monooxygenase (P08659 whole entry): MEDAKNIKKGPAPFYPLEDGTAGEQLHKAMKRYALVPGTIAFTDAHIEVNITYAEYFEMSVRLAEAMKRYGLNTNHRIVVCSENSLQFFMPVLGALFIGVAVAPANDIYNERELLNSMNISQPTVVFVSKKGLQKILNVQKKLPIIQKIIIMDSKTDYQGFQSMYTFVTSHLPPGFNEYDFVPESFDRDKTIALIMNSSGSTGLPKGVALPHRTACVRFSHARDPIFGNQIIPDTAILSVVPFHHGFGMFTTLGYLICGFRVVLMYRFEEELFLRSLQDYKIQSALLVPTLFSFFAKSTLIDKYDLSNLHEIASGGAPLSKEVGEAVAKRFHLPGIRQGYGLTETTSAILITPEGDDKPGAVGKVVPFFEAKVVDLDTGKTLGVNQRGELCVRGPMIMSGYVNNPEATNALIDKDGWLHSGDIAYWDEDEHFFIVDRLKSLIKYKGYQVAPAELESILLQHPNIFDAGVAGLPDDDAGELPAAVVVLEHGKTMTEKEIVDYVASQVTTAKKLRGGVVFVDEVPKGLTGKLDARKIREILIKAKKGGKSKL
# [18] = Luminescence Cell-Based Dose Confirmation HTS to Identify Inhibitors of Platelet Dense Granule Release. [Related pubchem assays: 1663 (Primary HTS), 1678 (Summary of Project)]; format: functional
# [19] = system: BJ; experiment: cytotoxicity toward BJ-TERT-LT-ST fibroblasts, dose response, cell-based, RAS-independent, luminescence (AID 1935); format: functional; conditions: Homo sapiens;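 also: BJ fibroblasts immortalized with TERT plus LT and ST oncogenes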
# [20] = cytotoxicity toward DRD oncogenic fibroblasts, dose response, cell-based, non-viral oncogenic, luminescence (AID 1934); format: functional; conditions: Homo sapiens
# [21] = system: Streptococcus sp. 'group A'; experiment: growth inhibition of control SK(-) GAS strain, dose response, counter-screen for streptokinase expression inhibitor project, luminescence, kanamycin, BacTiterGlo, confirmation (AID 1900); format: functional, organism-based
# [22] = target: T6, Streptokinase A (Streptococcus pyogenes serotype M1, UniProt P10520); experiment: S. pyogenes streptokinase expression inhibitors, potency, dose response, plasminogen activation absorbance, OD405 (AID 1914); format: functional, Streptococcus pyogenes M1 GAS;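 also: secreted streptokinase activity via plasminogen activation per viability signal from cell pellet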
# T6 sequence (P10520 whole entry): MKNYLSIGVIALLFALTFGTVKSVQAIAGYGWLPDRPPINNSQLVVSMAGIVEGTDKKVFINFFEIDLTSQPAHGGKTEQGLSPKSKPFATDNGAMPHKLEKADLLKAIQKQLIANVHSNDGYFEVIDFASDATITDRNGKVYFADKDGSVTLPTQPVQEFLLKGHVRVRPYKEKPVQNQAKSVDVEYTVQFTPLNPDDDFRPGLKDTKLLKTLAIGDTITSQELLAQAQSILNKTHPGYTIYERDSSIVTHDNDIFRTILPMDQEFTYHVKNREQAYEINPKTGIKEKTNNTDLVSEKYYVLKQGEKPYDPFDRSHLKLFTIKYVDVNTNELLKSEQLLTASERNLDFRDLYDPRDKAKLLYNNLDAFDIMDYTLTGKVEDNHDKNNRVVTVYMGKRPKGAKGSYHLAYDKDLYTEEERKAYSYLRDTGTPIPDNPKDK
# [23] = system: Streptococcus; experiment: Group A Streptococcus viability loss, dose response, counter-screen for streptokinase expression inhibitor project, luminescence, BacTiterGlo (AID 1915); format: functional, organism-based;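 also: potency for reduction of bacterial viability or growth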
# [24] = Luminescence Cell-Based Dose Retest to Confirm Inhibitors of Cancer Stem Cells. [Related pubchem assays (depositor defined):AID2717, AID2721]; format: functional; conditions: Homo sapiens
# Sequence of Cytochrome P450 2C19 (P33261 whole entry): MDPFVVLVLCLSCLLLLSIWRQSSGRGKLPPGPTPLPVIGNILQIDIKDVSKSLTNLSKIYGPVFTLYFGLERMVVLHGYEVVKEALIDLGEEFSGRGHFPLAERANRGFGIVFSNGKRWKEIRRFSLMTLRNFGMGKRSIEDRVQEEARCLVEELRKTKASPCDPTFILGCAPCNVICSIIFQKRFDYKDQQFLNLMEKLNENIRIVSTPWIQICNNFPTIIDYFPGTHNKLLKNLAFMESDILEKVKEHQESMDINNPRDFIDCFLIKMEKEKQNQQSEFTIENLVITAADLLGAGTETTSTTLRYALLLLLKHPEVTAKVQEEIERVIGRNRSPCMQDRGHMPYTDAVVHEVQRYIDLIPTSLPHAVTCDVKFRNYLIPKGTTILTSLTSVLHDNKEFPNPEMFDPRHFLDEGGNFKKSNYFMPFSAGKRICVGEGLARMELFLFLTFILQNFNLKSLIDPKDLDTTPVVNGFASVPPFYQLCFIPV
structure (smiles),measurement,setting,value
CN1CCN(NC(=O)c2cccc(F)c2)CC1,AC50,[1],39.8 µM (inconclusive)
same,AC50,[2],39.8 µM (inconclusive)
same,AC50,[3],355 nM (inconclusive)
CN1CCN(c2cc(N3CCCC3)c([N+](=O)[O-])cc2F)CC1,AC50,[2],14.1 µM (inconclusive)
same,AC50,[3],100 nM (inconclusive)
Cc1noc(C)c1-c1nc(Nc2ccncc2)c2ccccc2n1,AC50,[1],31.6 µM (inconclusive)
same,AC50,[2],12.6 µM (inconclusive)
Sc1nnc(-c2ccco2)n1/N=C/C(Cl)=C/c1ccccc1,AC50,[4],798 nM (active)
same,IC50,[5],62.7 µM (active)
COc1cc(/C=N/NC(=O)C(=O)NCC2CCCO2)ccc1O (stereo unspecified),IC50,[6],11.7 µM (active)
same,IC50,[7],32.3 µM (active)
Cn1nccc1C(=O)Nc1ccc(Cl)cc1,AC50,[2],0.282 µM (inconclusive)
COc1cccc(-c2ccc3ncnc(NCc4ccc(OC)cc4OC)c3c2)c1,AC50,[2],20 µM (inconclusive)
same,AC50,[3],501 nM (inconclusive)
COc1ccccc1CNc1nc(-c2cc(C)n(C)c2C)cs1,IC50,[8],50 µM (inactive)
CCOc1ccc(N2C(=O)/C(=C/c3ccc(C)o3)C(=O)NC2=S)cc1,EC50,[9],> 300 µM (not active)
same,EC50,[10],> 300 µM (not active)
same,IC50,[6],49.9 µM (active)
Nc1c(N(CCC2=CCCCC2)C(=O)COc2ccc(F)cc2)c(=O)[nH]c(=O)n1Cc1ccccc1,AC50,[11],4.49 µM (active)
Cc1cccc(NC(=O)c2cc(S(=O)(=O)c3ccccc3)ccc2Cl)c1,IC50,[12],7.13 µM (not active)
same,IC50,[13],3.47 µM (active)
same,EC50,[14],> 53 µM (inactive)
O=S1(=O)N=C(Nc2ccc(O)cc2)c2ccccc21,IC50,[6],5.09 µM (active)
same,IC50,[7],22.3 µM (active)
CN(C)c1ccc2nc3c(C(=O)O)cc(=O)c(O)c-3oc2c1,AC50,[1],2.51 µM (inconclusive)
same,AC50,[2],3.16 µM (inconclusive)
O=C(Oc1ccc(=O)n(-c2ccccc2)n1)c1cccc(Cl)c1,IC50,[8],> 64 µM (inactive)
Cc1c(C(=O)N2CCCCC2)nn(-c2ccc(Cl)cc2)c(=O)c1C#N,IC50,[8],50 µM (inactive)
COc1cc(NC(=O)c2ccccc2)c(OC)cc1NC(=O)CSc1nc(O)cc(C)c1C#N,EC50,[15],73.6 µM (inconclusive)
same,EC50,[16],36 µM (inconclusive)
same,EC50,[17],> 112 µM (not active)
same,EC50,[18],1.21 µM (active)
same,EC50,[19],> 150 µM (not active)
same,EC50,[20],34.7 µM (active)
CCCCC(CC)CN1C(=O)/C(=C/c2ccncc2)SC1=S (stereo unspecified),EC50,[21],2.59 µM (active)
same,EC50,[15],> 150 µM (not active)
same,EC50,[22],> 150 µM (not active)
same,EC50,[16],> 150 µM (not active)
same,EC50,[19],> 150 µM (not active)
same,EC50,[20],> 150 µM (not active)
same,EC50,[23],9.05 µM (active)
same,AC50,[24],7.84 µM (active)
same,AC50,[11],17.7 µM (active)
Cc1cc(NC(=O)c2noc3c2CCc2ccccc2-3)n(-c2ccccc2)n1,IC50,[8],> 64 µM (inactive)
CN(C)c1ccc(NC(N)=S)cc1,IC50,[6],7.29 µM (active)
Cc1cc(N2CCN(Cc3cn(C)nc3-c3ccccc3F)CC2)cc(C)n1,EC50,[15],10.1 µM (active)
same,EC50,[16],101 µM (inconclusive)
same,EC50,[19],14.9 µM (active)
same,EC50,[20],16.3 µM (inconclusive)
CCN(CC)c1ccc(/C=N/N2CCOCC2)cc1,IC50,[6],5.98 µM (active)
same,IC50,[7],40.8 µM (active)
